Laboratory results from patent US6576638B1, “Use of substance P antagonists in the treatment of the adenocarcinomas” (Biopolis S.p.A., priority 1999, dated 2003).
Where no end group is shown, it is not given here.

What was measured:
NK-1 receptor [1] = biological target: T1, NK-1 receptor (Homo sapiens, UniProt P25103); settings: human tissues; cited from earlier work
T1 construct: pA2>6.0 both in murine and human tissues; host or cells: human tissues (not specified)

NK-1 receptor [2] = biological target: T2, NK-1 receptor (Rattus norvegicus, UniProt P14600); settings: rat tissues; cited from earlier work
T2 construct: pA2>6.0 both in murine and human tissues; host or cells: rat ('murine') tissues (not specified)
T2 sequence (P14600 whole entry): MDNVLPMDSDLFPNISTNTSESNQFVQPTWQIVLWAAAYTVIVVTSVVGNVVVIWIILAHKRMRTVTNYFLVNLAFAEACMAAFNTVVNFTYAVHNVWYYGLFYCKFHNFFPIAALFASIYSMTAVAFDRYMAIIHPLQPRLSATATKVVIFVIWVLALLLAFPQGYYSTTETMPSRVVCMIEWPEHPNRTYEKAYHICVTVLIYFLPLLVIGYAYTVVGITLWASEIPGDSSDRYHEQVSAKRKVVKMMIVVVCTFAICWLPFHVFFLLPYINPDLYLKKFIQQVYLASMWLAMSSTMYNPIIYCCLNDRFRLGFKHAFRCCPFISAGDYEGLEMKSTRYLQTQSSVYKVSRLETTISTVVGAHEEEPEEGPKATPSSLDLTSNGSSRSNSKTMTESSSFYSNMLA

[3] = system: PC-3 human prostatic cancer cell lines; experiment: Vascular density quantification (CD31 immunohistochemistry) in orthotopic PC-3 prostate tumors in nude mice; assay type: in vivo, male athymic nude mices; settings: compared to control groups (L-703,606 also vs SP treated mice); p<0.05; 1 ng up to 1 mg; three up to 180 days
Protocol: (§1) For this studies has been used male athymic nude mices (Harlan). The mices were housed in laminar flow cabinet under pathogenic free conditions and used at 4-5 weeks of age.
(§2) The PC-3 human prostatic cancer cell lines (ECACC) were mantained in Minimum essential medium (GIBCO BRL) For in vivo studies, tumor cells in exponential growth phase were harvested by a 120 seconds treatment with tripsyn in 0.02% EDTA. After that the cells were resuspended in saline solution. 20 μl (10^5 cells) of saline solution was inoculated in nude mice prostate. The tumors were taken at different times (three up to 180 days) for analysis.
(§3) Animals were divided in groups (10 animals each one) and treated with different solutions:
(§4) physiological solution, -Sustance P (1 ng up to 1 mg), -L-703,606 (1 ng up to 1 mg), −L-703,606+Leuprolide Acetate (using dosages reported in table 1 and 2).
(§5) The treatments were made at different time (one at day until one at week). For different periods of time (three days up to 180 days).
Frozen sections of tumors have been fixed in Acetone, acetone/chloroform, acetone.
The presence of new blood vessels has been highlighted using the Rat anti-Mouse CD31 antibody, a Goat anti-Rat POX as a secondary antibody and DAB as a chromogen substrate. For quantification of blood vessels an image analysis system was employed.

[4] = system: PC-3 human prostatic cancer cell lines; experiment: Tumoral mass weight of orthotopic PC-3 prostate tumors in nude mice; assay type: in vivo, male athymic nude mices; settings: compared to either control groups or SP treated mice; p<0.05; from 3 up to 180 days
Protocol: as §1, §2, §3, §4, §5
The animals were maitained under observation for three up to 180 days. Autoptic examinations were performed in all animals and the tumoral mass weighed.

T1 sequence (P25103 whole entry): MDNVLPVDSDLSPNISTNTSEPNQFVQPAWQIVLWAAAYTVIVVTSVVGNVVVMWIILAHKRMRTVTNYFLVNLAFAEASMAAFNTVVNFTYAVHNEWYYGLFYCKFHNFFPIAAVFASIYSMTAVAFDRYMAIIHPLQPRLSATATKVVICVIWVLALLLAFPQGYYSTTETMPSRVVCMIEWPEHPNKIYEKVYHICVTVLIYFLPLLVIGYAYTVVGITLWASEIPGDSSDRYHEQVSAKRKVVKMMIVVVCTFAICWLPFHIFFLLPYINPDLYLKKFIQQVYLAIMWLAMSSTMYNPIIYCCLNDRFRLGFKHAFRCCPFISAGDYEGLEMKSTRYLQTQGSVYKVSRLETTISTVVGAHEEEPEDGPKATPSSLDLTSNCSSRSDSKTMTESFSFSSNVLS

Row | Molecule | pA2 human (NK-1 receptor [1]) | pA2 rat (NK-1 receptor [2]) | CD 31 values (blood vessels density) [3] | tumoral mass weight [4]
1 | CC(C)Oc1cccc(CC(=O)N2CCC[C@](CC[N+]34CCC(c5ccccc5)(CC3)CC4)(c3ccc(Cl)c(Cl)c3)C2)c1 [SR 140333] | 9.8 | 7.4 |  | 
2 | COc1ccccc1CC(=N)N1C[C@@H]2C(=O)CCC(c3ccccc3)(c3ccccc3)[C@@H]2C1 [RP 67580] | 7.2 | 8.2 |  | 
3 | COc1ccccc1CN[C@H]1CCCN[C@H]1c1ccccc1 [CP 99994] | 8.9 | 6.1 |  | 
4 | Cc1cc(C)cc(C(=O)N2CC[C@H](NCCc3ccccc3)C[C@H]2Cc2ccccc2)c1 [CGP 47899] | >6.0 | >6.0 |  | 
5 | COc1ccccc1CN[C@H]1C2CCN(CC2)[C@H]1C(c1ccccc1)c1ccccc1 [CP 96345] | 9.5 | 6.8 |  | 
6 | Cc1ccc(CC(=O)N(C)[C@H](Cc2ccc3ccccc3c2)C(=O)N[C@@H]2CCCC[C@@H]2NC(=O)c2c[nH]c3ccccc23)cc1 [MEN 11467] | >6.0 | >6.0 |  | 
7 | COc1ccc(-n2nnnc2C(F)(F)F)cc1CN[C@H]1CCCN[C@H]1c1ccccc1 [GR 205171] | >6.0 | >6.0 |  | 
8 | Ic1ccccc1CN[C@@H]1C2CCN(CC2)[C@@H]1C(c1ccccc1)c1ccccc1 (racemic) [L-703,606] |  |  | statistically significant reduction | statistically significant reduction
9 | CN(Cc1ccccc1)C(=O)[C@H](Cc1ccc2ccccc2c1)NC(=O)[C@@H]1C[C@@H](O)CN1C(=O)c1cn(C)c2ccccc12 [FK 888] | 9.1 | 6.0 |  | 
10 | substance P (RPKPQQFFGLM; ends and bridges not checked; UniProt P20366 58-68, looked up) [SP, substance P (SP), plays a role in angiogenesis stimulation] |  |  | statistically significant increase | 
